Patent publication US8333970B2, “Methods of monitoring the efficacy of anti-CD40 antibodies in treating a subject having an inflammatory or autoimmune disease” (Novartis AG, priority 2005, dated 2012)
Entries after “also recorded” stand apart in the source; their conditions may differ.

How the values were obtained:
[1] = system: normal human B cells; experiment: Western blot of XIAP and cleaved PARP without sCD40L stimulation; format: cell-based; details: 10 μg/ml antibody, no sCD40L, 0 to 16 hours
Description: Cells were collected at 0, 4, 14, and 16 hours. XIAP, cleaved PARP, and β-actin controls were detected in cell lysates by Western blot.

[2] = system: monocytes; experiment: CD40L-induced cytokine secretion, Meso Scale Discovery multi-array; format: cell-based, human; details: 24 hours
Description: (§1) Cells (1×10^5 cells per well) were cultured in a 96-well plate in the presence or absence of CD40L ([…], formaldehyde fixed CHO cells, 2×10^5 per well). […] Production of hIL-6, hIL-8, hIL-10, hTNF-α; hGM-CSF, hIL-1b, hIL-12p70, MCP-1, and MIP-1β beta was measured by Meso Scale Discovery® multi-array system (Meso Scale Discovery, Gaithersburg, Md.).

[3] = system: normal B cells; experiment: as above; format: cell-based, human; details: 24 hours; for % inhibition of CD40L-induced MCP-1 secretion / % inhibition of CD40L-induced MIP-1β secretion / % inhibition of CD40L-induced hIL-6 secretion / % inhibition of CD40L-induced hIL-8 secretion / % inhibition of CD40L-induced hIL-10 secretion / % inhibition of CD40L-induced hTNF-α secretion: normal B cells
Description: as §1

[4] = system: normal human B cells; experiment: Western blot of survival and signaling markers, rhsCD40L-stimulated B cells (Example 5, FIG. 1); format: cell-based
Description: Cells were lysed and whole cell lysates resolved by SDS-PAGE and Western blotting using antibodies specific to human cPARP, Mcl-1, Bcl-xl, p-Akt, and p-p38 MAPK. All membranes were stripped and re-probed for either β-actin or total Akt or p38 MAPK protein, as appropriate.

[5] = system: pre-clinical tumor models; experiment: Pre-clinical tumor models; format: in vivo
[6] = 2 μg/ml rhsCD40L, 10 μg/ml antibody, 24 hr

CHIR-12.12: fully human anti-CD40 monoclonal antibody of the IgG1 isotype, hybridoma 153.8E2.D10.D6.12.12, ATCC PTA-5543, SEQ ID NO:2 and 4
apoptosis (cleaved PARP, XIAP) without sCD40L stimulation [1]: did not trigger these apoptotic effects; also recorded: does not trigger apoptosis in normal human B cells without CD40L stimulation
CD40L-induced production of hIL-10, hTNF-α, hIL-8, hIL-6, MCP-1 and MIP-1β ([2]; monocytes (n=1), 10 μg/ml): inhibited CD40L-induced monocyte production
% inhibition of CD40L-induced MCP-1 secretion ([2]; monocytes, Donor 1, 10 μg/ml): 92.6%
% inhibition of CD40L-induced MIP-1β secretion ([2]; monocytes, Donor 1, 10 μg/ml): 32.4%
% inhibition of CD40L-induced hIL-6 secretion ([2]; monocytes, Donor 1, 10 μg/ml): 64.9%
% inhibition of CD40L-induced hIL-8 secretion ([2]; monocytes, Donor 1, 10 μg/ml): 43.7%
% inhibition of CD40L-induced hIL-10 secretion ([2]; monocytes, Donor 1, 10 μg/ml): 58.5%
% inhibition of CD40L-induced hTNF-α secretion ([2]; monocytes, Donor 1, 10 μg/ml): 60.1%
cytokine production with antibody alone (agonistic activity) ([3]; absence of CD40L, 10 μg/ml): did not produce any of the cytokines above background levels
CD40L-induced production of all cytokines ([3]; normal B cells (n=3), 10 μg/ml): inhibited production of all cytokines
% inhibition of CD40L-induced MCP-1 secretion ([3]; Donor 1, 10 μg/ml): 55.3%
% inhibition of CD40L-induced MIP-1β secretion ([3]; Donor 1, 10 μg/ml): 54.4%
% inhibition of CD40L-induced hIL-6 secretion ([3]; Donor 1, 10 μg/ml): 92.2%
% inhibition of CD40L-induced hIL-8 secretion ([3]; Donor 1, 10 μg/ml): 98.2%
% inhibition of CD40L-induced hIL-10 secretion ([3]; Donor 1, 10 μg/ml): 90.5%
% inhibition of CD40L-induced hTNF-α secretion ([3]; Donor 1, 10 μg/ml): 92.8%
% inhibition of CD40L-induced MIP-1β secretion ([3]; Donor 2, 10 μg/ml): 92%
% inhibition of CD40L-induced hIL-6 secretion ([3]; Donor 2, 10 μg/ml): 99.9%
% inhibition of CD40L-induced hIL-8 secretion ([3]; Donor 2, 10 μg/ml): 84.7%
% inhibition of CD40L-induced hTNF-α secretion ([3]; Donor 2, 10 μg/ml): 97.4%
% inhibition of CD40L-induced MCP-1 secretion ([3]; Donor 3, 10 μg/ml): 25.7%
% inhibition of CD40L-induced MIP-1β secretion ([3]; Donor 3, 10 μg/ml): 92.5%
% inhibition of CD40L-induced hIL-6 secretion ([3]; Donor 3, 10 μg/ml): 99.3%
% inhibition of CD40L-induced hIL-8 secretion ([3]; Donor 3, 10 μg/ml): 99.5%
% inhibition of CD40L-induced hIL-10 secretion ([3]; Donor 3, 10 μg/ml): 94.4%
% inhibition of CD40L-induced hTNF-α secretion ([3]; Donor 3, 10 μg/ml): 98.5%
expression of anti-apoptotic proteins Mcl-1 and Bcl-xl [4, 6]: inhibited the expression of the anti-apoptotic proteins Mcl-1 and Bcl-xl
phosphorylation of Akt and p38 MAPK [4, 6]: inhibiting the phosphorylation of the downstream signaling proteins
CD40L-induced signaling and survival of normal human B cells ([4]; FIG. 1): blocked
anti-tumor potency compared with rituximab [5]: more potent anti-tumor antibody than is rituximab
